Measured values taken from patent publication US4201774A, “Novel aminoglycoside derivatives” (Shionogi & Co., Ltd., priority 1977, dated 1980).
Converted amounts (≈) assume the structure as drawn.

Experiments:
[1] = tested on: Staphylococus epidermidis TB-302; test: MIC, Staphylococus epidermidis TB-302; format: cell-based; details: read-out: minimum inhibitory concentration (MIC)
Seratia marcescens MA-81 = test: MIC, Seratia marcescens MA-81*; format: cell-based; details: Seratia marcescens MA-81, tobramycin resistant strain; read-out: minimum inhibitory concentration (MIC)
Proteus inconstans In-43 = test: MIC, Proteus inconstans In-43*; format: cell-based; details: Providencia alcalifaciens, IN43; Proteus inconstans In-43, tobramycin resistant strain; read-out: minimum inhibitory concentration (MIC)
Escherichia coli EC-147 = test: MIC, Escherichia coli EC-147*; details: EC147, read-out: minimum inhibitory concentration (MIC)
Escherichia coli EC-148 = test: MIC, Escherichia coli EC-148*; details: EC148, read-out: minimum inhibitory concentration (MIC)
[2] = tested on: Staphylococcus aureus S-25; test: MIC, Staphylococcus aureus S-25*; details: S25, read-out: minimum inhibitory concentration (MIC)
[3] = tested on: Citrobactor freundii Ct-52; test: MIC, Citrobactor freundii Ct-52*; details: read-out: minimum inhibitory concentration (MIC)
[4] = tested on: Enterobacter cloacae Cl-126; test: MIC, Enterobacter cloacae Cl-126*; details: CL126, read-out: minimum inhibitory concentration (MIC)
[5] = tested on: Pseudomonas aeruginosa PP-6; test: MIC, Pseudomonas aeruginosa PP-6*; details: PP6, read-out: minimum inhibitory concentration (MIC)
[6] = tested on: Klebsiella pneumoniae Kl-187; test: MIC, Klebsiella pneumoniae Kl-187*; details: KL187, read-out: minimum inhibitory concentration (MIC)
[7] = tested on: Escherichia coli W-677/JR 214; test: MIC, Escherichia coli W-677/JR 214*; details: W677/JR214, read-out: minimum inhibitory concentration (MIC)
[8] = tested on: Escherichia coli W-677/JR 225; test: MIC, Escherichia coli W-677/JR 225*; details: W677/JR225, read-out: minimum inhibitory concentration (MIC)
[9] = tested on: Escherichia coli W-677/JR-762; test: MIC, Escherichia coli W-677/JR-762*; details: W677/JR762, read-out: minimum inhibitory concentration (MIC)

In the case of `NC[C@H]1O[C@H](O[C@H]2[C@H](O)[C@@H](O[C@H]3O[C@H](CO)[C@@H](O)[C@H](N)[C@H]3O)[C@H](NCC3(O)CCNC3)C[C@@H]2N)[C@H](O)[C@@H](O)[C@@H]1O` (some centres unmarked) [Test compound (4), 1-N-[(3-hydroxypyrrolidin-3-yl)methyl]kanamycin A], the MIC [1] is reported as 1.56 mg/L (≈ 2.67 µM), the MIC (Seratia marcescens MA-81) is reported as 12.5 mg/L (≈ 21.4 µM) and the MIC (Proteus inconstans In-43) is reported as 3.13 mg/L (≈ 5.36 µM). The MIC (Escherichia coli EC-147) was 6.25 mg/L (≈ 10.7 µM), the MIC (Escherichia coli EC-148) was 6.25 mg/L (≈ 10.7 µM) and the MIC [2] was 12.5 mg/L (≈ 21.4 µM). It also gave an MIC [3] of 1.56 mg/L (≈ 2.67 µM), an MIC [4] of 1.56 mg/L (≈ 2.67 µM) and an MIC [5] of 3.13 mg/L (≈ 5.36 µM). It also gave an MIC [6] of 1.56 mg/L (≈ 2.67 µM), an MIC [7] of 3.13 mg/L (≈ 5.36 µM) and an MIC [8] of 3.13 mg/L (≈ 5.36 µM). For the same compound, the MIC [9] was 12.5 mg/L (≈ 21.4 µM).
Work on `NC[C@H]1O[C@H](O[C@H]2[C@H](O)[C@@H](O[C@H]3O[C@H](CO)[C@@H](O)[C@H](N)[C@H]3O)[C@H](NCC3(O)CCNC3)C[C@@H]2N)[C@H](N)C[C@@H]1O` (some centres unmarked) [Test compound (2), 1-N-[(3-hydroxypyrrolidin-3-yl)methyl]tobramycin] yielded an MIC [1] of 1.56 mg/L (≈ 2.75 µM), an MIC (Seratia marcescens MA-81) of 12.5 mg/L (≈ 22.1 µM) and an MIC (Proteus inconstans In-43) of 12.5 mg/L (≈ 22.1 µM). It also gave an MIC (Escherichia coli EC-147) of 3.13 mg/L (≈ 5.52 µM), an MIC (Escherichia coli EC-148) of 3.13 mg/L (≈ 5.52 µM) and an MIC [2] of 25 mg/L (≈ 44.1 µM). It also gave an MIC [3] of 0.78 mg/L (≈ 1.38 µM), an MIC [4] of 0.78 mg/L (≈ 1.38 µM) and an MIC [5] of 0.78 mg/L (≈ 1.38 µM). For the same compound, the MIC [6] was 0.39 mg/L (≈ 0.688 µM), the MIC [7] was 1.56 mg/L (≈ 2.75 µM) and the MIC [8] was 0.78 mg/L (≈ 1.38 µM). The MIC [9] was 3.13 mg/L (≈ 5.52 µM).
In the case of `NC[C@H]1O[C@H](O[C@H]2[C@H](O)[C@@H](O[C@H]3O[C@H](CO)[C@@H](O)[C@H](N)[C@H]3O)[C@H](NCC3(O)CNC3)C[C@@H]2N)[C@H](N)C[C@@H]1O` [Test compound (1), 1-N-[(3-hydroxyazetidin-3-yl)methyl]tobramycin], the MIC [1] is reported as 3.13 mg/L (≈ 5.66 µM), the MIC (Seratia marcescens MA-81) is reported as 12.5 mg/L (≈ 22.6 µM) and the MIC (Proteus inconstans In-43) is reported as 6.25 mg/L (≈ 11.3 µM). The MIC (Escherichia coli EC-147) was 3.13 mg/L (≈ 5.66 µM), the MIC (Escherichia coli EC-148) was 3.13 mg/L (≈ 5.66 µM) and the MIC [2] was 50 mg/L (≈ 90.5 µM). For the same compound, the MIC [3] was 0.78 mg/L (≈ 1.41 µM), the MIC [4] was 0.78 mg/L (≈ 1.41 µM) and the MIC [5] was 0.78 mg/L (≈ 1.41 µM). The MIC [6] was 0.78 mg/L (≈ 1.41 µM), the MIC [7] was 1.56 mg/L (≈ 2.82 µM) and the MIC [8] was 1.56 mg/L (≈ 2.82 µM). It also gave an MIC [9] of 3.13 mg/L (≈ 5.66 µM).
In the case of `NC[C@H]1O[C@H](O[C@H]2[C@H](O)[C@@H](O[C@H]3O[C@H](CO)[C@@H](O)[C@H](N)[C@H]3O)[C@H](N)C[C@@H]2N)[C@H](N)C[C@@H]1O` [Test compound (5), tobramycin, reference compound], the MIC [1] is reported as 3.13 mg/L (≈ 6.69 µM), the MIC (Seratia marcescens MA-81) is reported as > 100 mg/L and the MIC (Proteus inconstans In-43) is reported as 6.25 mg/L (≈ 13.4 µM). For the same compound, the MIC (Escherichia coli EC-147) was 50 mg/L (≈ 107 µM), the MIC (Escherichia coli EC-148) was 100 mg/L (≈ 214 µM) and the MIC [2] was 100 mg/L (≈ 214 µM). For the same compound, the MIC [3] was 25 mg/L (≈ 53.5 µM), the MIC [4] was 25 mg/L (≈ 53.5 µM) and the MIC [5] was 50 mg/L (≈ 107 µM). The MIC [6] was 25 mg/L (≈ 53.5 µM), the MIC [7] was 100 mg/L (≈ 214 µM) and the MIC [8] was 50 mg/L (≈ 107 µM). For the same compound, the MIC [9] was > 100 mg/L.
In the case of `NC[C@H]1O[C@H](O[C@H]2[C@H](O)[C@@H](O[C@H]3O[C@H](CO)[C@@H](O)[C@H](N)[C@H]3O)[C@H](NCC3(O)CNC3)C[C@@H]2N)[C@H](O)[C@@H](O)[C@@H]1O` [Test compound (3), 1-N-[(3-hydroxyazetidin-3-yl)methyl]kanamycin A], the MIC [1] is reported as 3.13 mg/L (≈ 5.49 µM), the MIC (Seratia marcescens MA-81) is reported as 12.5 mg/L (≈ 21.9 µM) and the MIC (Proteus inconstans In-43) is reported as 3.13 mg/L (≈ 5.49 µM). It also gave an MIC (Escherichia coli EC-147) of 6.25 mg/L (≈ 11 µM), an MIC (Escherichia coli EC-148) of 12.5 mg/L (≈ 21.9 µM) and an MIC [2] of 25 mg/L (≈ 43.9 µM). It also gave an MIC [3] of 3.13 mg/L (≈ 5.49 µM), an MIC [4] of 1.56 mg/L (≈ 2.74 µM) and an MIC [5] of 3.13 mg/L (≈ 5.49 µM). It also gave an MIC [6] of 1.56 mg/L (≈ 2.74 µM), an MIC [7] of 6.25 mg/L (≈ 11 µM) and an MIC [8] of 3.13 mg/L (≈ 5.49 µM). It also gave an MIC [9] of 12.5 mg/L (≈ 21.9 µM).
